In patent US9133203B2, “Pyrroloquinazoline compounds” (OREGON HEALTH & SCIENCE UNIVERSITY, priority 2013, dated 2015):

Legend:
LMNB1 = target: T1, LMNB1 (Homo sapiens, UniProt P20700); test: Chemoproteomic pulldown with probe 10 and Western blot, LMNB1; type: binding; settings: MDA-MB-468 cells, photocrosslinking, streptavidin pulldown, Western blot
T1 construct: endogenous in cells; host or cells: MDA-MB-468
T1 sequence (P20700 1-586): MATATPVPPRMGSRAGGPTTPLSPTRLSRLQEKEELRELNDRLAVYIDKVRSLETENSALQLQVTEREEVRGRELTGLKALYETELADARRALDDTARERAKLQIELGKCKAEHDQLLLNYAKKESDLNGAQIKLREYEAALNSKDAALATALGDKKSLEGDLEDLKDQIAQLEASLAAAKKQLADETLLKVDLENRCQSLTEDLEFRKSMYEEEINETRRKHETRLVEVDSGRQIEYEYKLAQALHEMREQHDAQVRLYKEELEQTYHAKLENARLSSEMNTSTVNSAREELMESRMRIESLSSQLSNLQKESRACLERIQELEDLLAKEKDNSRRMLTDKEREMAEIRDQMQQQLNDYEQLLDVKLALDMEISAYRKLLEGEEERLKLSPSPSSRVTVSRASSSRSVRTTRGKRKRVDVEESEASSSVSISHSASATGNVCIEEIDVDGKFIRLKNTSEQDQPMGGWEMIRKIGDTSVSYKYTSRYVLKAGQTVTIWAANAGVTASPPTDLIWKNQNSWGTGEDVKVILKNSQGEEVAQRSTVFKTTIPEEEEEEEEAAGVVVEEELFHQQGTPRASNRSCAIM
Protocol: (§1) FIG. 5A is a schematic diagram of chemoproteomics experiments described in Example 38 below. MDA-MB-468 cells were treated with probe 10 with or without compound 7f. Then the cells were irradiated by UV followed by cell lysis. The lysates were clicked with a biotin-N3. The biotinylated proteins were pulled down with streptavidin beads. The bound proteins were trypsin-digested for LC-MS/MS analysis or eluted for Western analysis.
(§2) FIG. 5B is an image of a Western blot showing that 7f binds LMNA and LMNB1. The proteins from streptavidin-pulldown prepared as shown in FIG. 5A were subjected to Western blot with antibodies specific for the proteins indicated by the arrows to the right of the figure.
(§3) Unbiased chemical proteomics experiments involving photocrosslinking MDA-MB-468 cells treated with probe compound 10, clicking with a biotin-azide (biotin-N3), streptavidin pulldown and mass spectroscopic analyses identified nuclear lamins as the molecular targets of 7f. Nuclear lamins are type V intermediate filament proteins. In humans, there are three lamin genes (LMNA, LMNB1 and LMNB2) encoding four major proteins: LMNA, LMNC, LMNB1 and LMNB2. To further confirm that lamins are the targets, the biotinylated proteins prepared as shown in FIG. 5A were pulled down and analyzed by Western blot with individual antibodies (FIG. 5B).

[1] = test system: CREB-mediated gene transcription; test: CREB reporter assay (CRE-RLuc) in HEK 293T cells; type: cell-based, human; settings: forskolin 10 μM
Protocol: FIG. 4 is a plot showing the activity of compound 7f on CREB mediated gene transcription in HEK 293T cells. HEK 293T cells were transfected with a CREB renilla luciferase reporter (CRE-RLuc). Then the cells were treated with increasing concentrations of 7f for 30 min before the addition of forskolin at a final concentration of 10 μM. The cells were further incubated for 5 hours before cell lysis and renilla luciferase activity measurement. The renilla luciferase activity was normalized to the protein concentration of the cell lysates and was expressed as relative luciferase unit (RLU)/μg of proteins.
Inhibition of CREB mediated transcription in HEK 293T cells by a CREB reporter assay was performed as described in Li and Xiao, 2009 supra.

LMNA/C = test: Chemoproteomic pulldown with probe 10 and Western blot, LMNA/C; type: binding, human; settings: MDA-MB-468 cells, photocrosslinking, streptavidin pulldown, Western blot
Protocol: as §1, §2, §3

human DHFR = target: T2, human DHFR (Homo sapiens, UniProt P00374); test: In vitro human DHFR inhibition; type: biochemical; settings: DHFR assay kit, NADPH 60 μM, DHF 50 μM
T2 construct: purchased Sigma
T2 sequence (P00374 1-187): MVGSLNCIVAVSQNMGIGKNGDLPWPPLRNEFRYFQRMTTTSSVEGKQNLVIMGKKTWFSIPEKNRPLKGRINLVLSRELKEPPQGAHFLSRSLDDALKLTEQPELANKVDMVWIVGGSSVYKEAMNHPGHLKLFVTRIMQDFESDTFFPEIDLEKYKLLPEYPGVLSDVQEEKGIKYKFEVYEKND
Protocol: The human DHFR assay was done with DHFR assay kit (Sigma) following the manufacturer's instructions with minor modifications. Different concentrations of a test compound were incubated with human DHFR (0.1875 mU) and NADPH (60 μM) in the 1× assay buffer for 2 min at room temperature. Then DHF (50 μM) was added to initiate the reduction reaction, which was immediately monitored by absorbance at 340 nm every 12 s for 3 min. The final reaction volume was 100 μL and the final DMSO concentration was 1%. The reaction velocities were calculated as the slopes from the absorbance-time curves.

MDA-MB-468 = test: MTT antiproliferation assay in MDA-MB-468 cells; type: cell-based; settings: Homo sapiens, concentration that limits growth by 50%, 72 hour incubation, mean ± SD, at least two experiments in duplicate
Protocol: (§4) The newly synthesized selectively mono-N-acylated compounds of series 4 and series 7 were evaluated as potential anticancer agents because compound 1 had been previously shown to display anticancer activity by inhibiting DHFR (Kuyper L F et al, J Med Chem 39, 892-903 (1996); incorporated by reference herein). Compounds of series 2 were not evaluated due to their poor solubility in DMSO. Two triple negative breast cancer (TN BC) cell lines (MDA-MB-231 and MDAMB-468) were selected to evaluate potential anticancer activity of the compounds of series 4 and series 7 by an MTT assay (Li B X et al, Bioorg Med Chem 20, 6811-6820 (2012); incorporated by reference herein.) TNBC represents a unique subtype of breast cancer clinically characterized by the lack of expression of estrogen receptor (ER), progesterone receptor (PR) and human epidermal growth factor receptor 2 (HER2). Subjects with triple negative breast cancer often have a poor prognosis (Kang S P et al, Curr Opin Obstet Gynecol 20, 40-46 (2008) and The Cancer Genome Atlas Network Nature, 490, 61-70 (2012); both of which are incorporated by reference herein). Current treatment options for TNBC are limited and novel agents are needed (Shastry M and Yardley D A, Curr Opin Obstet Gynecol 25, 40-48 (2013); incorporated by reference herein).
(§5) GI50 values represent the concentration that limits the growth of the cancer cells by 50% during a 72 hour incubation period. These are presented as mean±standard deviation of the mean of at least two independent experiments performed in duplicate.
(§6) TMTT assays for MDA-MB-231, MDA-MB-468 and HMEC were performed as described in Li et al, 2012 supra.

[2] = test system: normal human mammary epithelial cells (HMEC); test: MTT viability assay in normal human mammary epithelial cells; type: cell-based; settings: 72-h incubation
Protocol: FIG. 2 is a plot showing the effect of compound 7f on normal human mammary epithelial cells (HMEC.) HMEC were treated with the indicated concentrations of doxorubicin or 7f for 24 or 72 hours as indicated. Cells treated for 24 hours were further incubated in drug free media for 48 hours. The number of viable cells was determined by an MTT assay.
as §6

MDA-MB-231 = test: MTT antiproliferation assay in MDA-MB-231 cells; type: cell-based; settings: Homo sapiens, concentration that limits growth by 50%, 72 hour incubation, mean ± SD, at least two experiments in duplicate
Protocol: as §4, §5, §6

Nc1nc(NC(=O)c2ccc3ccccc3c2)nc2ccc3[nH]ccc3c12 [Compound 7f]
competition of probe 10 pulldown of LMNB1 (LMNB1): competed | concentration up to which CREB-mediated gene transcription is not inhibited [1]: ≥ 10 µM | melting point: 234 to 236 °C | competition of probe 10 pulldown of LMNA/C (LMNA/C): competed | concentration up to which human DHFR is not inhibited (human DHFR): ≥ 10 µM | GI50 (MDA-MB-468): 440 nM | concentration up to which not toxic to normal HMEC [2]: ≥ 5 µM | GI50 (MDA-MB-231): 1600 nM
